According to patent publication US9920295B2, “Bioreactor for isolation of rare cells and methods of use” (The Trustees of the University of Pennsylvania, priority 2012, dated 2018):
Read-outs that look alike come from different tables or passages of the source.

Columns and labels:
[1] = system: CD34+-derived cells (CFU-GM, BFU-E); assay: Colony forming assay; format: cell-based, human
Method: 1000-3000 CD34^+-derived cells were seeded into methylcellulose containing media (MethoCult H4434, StemCell Technologies) supplemented with SCF, GM-CSF, IL-3, Epo. They were cultured for 14 days and colonies were scored at 10× magnification based on the published morphological criteria by StemCell Technoloigies. Colony forming content was normalized per 10,000 cells seeded.

CD34+-derived cells = assay: Apoptosis by cleaved caspase-3 intracellular flow cytometry and Annexin-V; format: cell-based, human; settings: cleaved caspase-3 and Annexin-V+
Method: Cells were fixed with 4% paraformaldehyde in PBS for 10 min, washed with PBS and resuspended in 0.1% saponin in HBSS (staining medium). The samples were then stained with antibodies against cytoplasmic antigens, including NMM-IIA (Sigma), NMM-IIB, phospho-NMM-IIA and caspase-3 (all from Cell Signaling Technology) for 30 min at room temperature. In some cases, cells were concurrently stained with PE anti-CD34 or anti-human CD38 for subpopulation analysis. Cells were then washed and stained with anti-rabbit or mouse secondary antibodies conjugated with Alexa 647 (Invitrogen) for 30 min, followed by analysis on FACSCalibur.

αIIbβ3 = molecular target: T1, αIIbβ3 (Homo sapiens, UniProt P05106+P08514); assay: Platelet activation assay, PAC-1 binding; format: cell-based; settings: thrombin 1 U/mL
T1 construct: endogenous in cells; host or cells: platelet-like fragments from megakaryocytes cultured from human bone-marrow CD34+ cells
T1 sequence (P08514 32-887 limits assumed): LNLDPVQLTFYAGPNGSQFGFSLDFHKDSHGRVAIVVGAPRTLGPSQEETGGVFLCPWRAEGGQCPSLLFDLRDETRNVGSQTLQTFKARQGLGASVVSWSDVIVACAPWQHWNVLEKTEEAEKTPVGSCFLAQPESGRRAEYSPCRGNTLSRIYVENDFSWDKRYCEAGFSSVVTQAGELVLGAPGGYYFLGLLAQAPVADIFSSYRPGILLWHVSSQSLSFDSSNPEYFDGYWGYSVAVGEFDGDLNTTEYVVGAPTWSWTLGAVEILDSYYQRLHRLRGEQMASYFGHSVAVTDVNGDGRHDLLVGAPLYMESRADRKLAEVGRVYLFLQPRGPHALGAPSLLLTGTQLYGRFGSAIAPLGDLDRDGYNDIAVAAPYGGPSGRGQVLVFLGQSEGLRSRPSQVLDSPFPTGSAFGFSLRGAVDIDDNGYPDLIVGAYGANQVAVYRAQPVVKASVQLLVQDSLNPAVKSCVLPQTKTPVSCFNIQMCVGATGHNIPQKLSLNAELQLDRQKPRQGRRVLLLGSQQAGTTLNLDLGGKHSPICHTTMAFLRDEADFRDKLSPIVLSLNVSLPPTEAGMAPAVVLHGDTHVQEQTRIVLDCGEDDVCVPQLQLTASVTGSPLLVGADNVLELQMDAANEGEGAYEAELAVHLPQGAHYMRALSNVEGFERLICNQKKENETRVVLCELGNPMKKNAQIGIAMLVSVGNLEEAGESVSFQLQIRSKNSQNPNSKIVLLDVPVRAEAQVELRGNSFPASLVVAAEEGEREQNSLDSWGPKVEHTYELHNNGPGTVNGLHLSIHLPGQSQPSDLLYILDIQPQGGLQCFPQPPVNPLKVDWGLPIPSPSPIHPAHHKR
T1 sequence (P08514 891-1039 partner limits assumed): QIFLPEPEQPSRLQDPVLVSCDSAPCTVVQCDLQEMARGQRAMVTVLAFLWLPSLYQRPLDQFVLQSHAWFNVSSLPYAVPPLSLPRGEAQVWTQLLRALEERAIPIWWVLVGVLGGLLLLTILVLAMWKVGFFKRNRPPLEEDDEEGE
T1 sequence (P05106 27-788): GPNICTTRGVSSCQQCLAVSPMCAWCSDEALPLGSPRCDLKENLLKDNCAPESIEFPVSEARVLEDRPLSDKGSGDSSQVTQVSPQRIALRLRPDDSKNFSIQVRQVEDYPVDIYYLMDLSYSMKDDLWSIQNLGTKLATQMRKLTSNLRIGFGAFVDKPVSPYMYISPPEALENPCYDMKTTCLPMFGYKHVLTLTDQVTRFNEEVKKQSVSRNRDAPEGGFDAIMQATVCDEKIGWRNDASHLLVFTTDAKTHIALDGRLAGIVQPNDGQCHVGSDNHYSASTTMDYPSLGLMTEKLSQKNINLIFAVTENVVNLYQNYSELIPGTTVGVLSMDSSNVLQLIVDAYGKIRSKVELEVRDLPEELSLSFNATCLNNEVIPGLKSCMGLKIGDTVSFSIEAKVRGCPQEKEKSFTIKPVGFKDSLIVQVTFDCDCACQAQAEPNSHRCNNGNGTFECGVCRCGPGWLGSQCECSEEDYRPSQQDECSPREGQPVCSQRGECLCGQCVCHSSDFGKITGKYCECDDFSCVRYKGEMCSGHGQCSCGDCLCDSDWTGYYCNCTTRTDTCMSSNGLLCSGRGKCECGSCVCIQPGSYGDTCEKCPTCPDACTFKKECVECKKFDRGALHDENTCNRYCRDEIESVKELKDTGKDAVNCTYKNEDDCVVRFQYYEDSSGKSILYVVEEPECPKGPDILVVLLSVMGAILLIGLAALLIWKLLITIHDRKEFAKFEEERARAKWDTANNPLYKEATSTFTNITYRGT
Method: For platelet-activation assays, platelet-sided fraction isolated from either MK culture or NSG blood was resuspended in Tyrode's buffer supplemented with Mg^2+ and Ca^2+, and incubated with indicated agonists for 15 min at 37° C., followed by staining with FITC-conjugated anti-human P-selectin or PAC-1 antibody (BD Bioscience), APC-conjugated anti-human CD41, and in the case of xenograft samples, PE-conjugated anti-mouse CD41 for 15 min at room temperature, followed by fixation with 1.5% paraformaldehyde. Antibody-stained samples were then analyzed by flow cytometry. Platelet number was evaluated by mixing each sample with a defined number (˜10,000 beads per sample) of APC-conjugated beads (BD Bioscience). The number of platelets per sample was evaluated by: number of CD41^+ events/number of APC-bead events multiplied by total known number of APC-bead added per sample.

[2] = system: CD34+-derived cells (HSC, MPP, CPP); assay: HSC/P subpopulation analysis by flow cytometry; format: cell-based, human
Method: Freshly purified bone marrow-derived human CD34^+ cells were obtained from either the Penn Xenograft Core Facility or AllCells (Emeryville, Calif.). Cells from at least 20 different donors were used in this study. Purity of the samples (>98%) was confirmed by flow cytometry with monoclonal antibody against human CD34. All experiments were performed in HSC expansion media (StemLine, Sigma) supplemented with 1× antibiotics, 20% BIT 9500 Serum Substitute (StemCell Technologies), 2 mM […] (Gibco) and the following human recombinant cytokines: SCF (100 ng/ml) and Tpo (100 ng/ml). In some occasions, the media was also supplemented by G-CSF (100 ng/ml), epidermal growth factor (EGF, 100 ng/ml), transforming growth factor beta 1 (TGF-beta1, 100 ng/ml), erythropoietin (EPO, 1 U/ml) and interleukin-3 (IL-3, 10 ng/ml). All cytokines were purchased from R&D Systems. After cells were cultured for 4 days, they were treated with different doses of cellular contractility inhibitors, including (±)-Blebbistatin (Bleb) (EMD Biosciences) and/or CH-223191 (Sigma) for indicated durations of up to 3 days. Cells were cultured at 37° C. in 5% CO2.
Surface marker analysis for HSC/Ps was done on either a LSR II flow cytometer or FACSCalibur (Becton Dickinson). […] Cells isolated from the bone marrow stained for 1 hr with APC anti-mouse CD47 (miap301, AbD Serotec), FITC anti-human CD47 (BD Biosciences), and PE anti-human CD11b, PE anti-human CD19 (both from BD Biosciences), or PE anti-human Glycophorin A (Invitrogen). Plts and RBCs were analyzed by staining with PE anti-mouse CD41 (eBioscience) and FITC anti-human CD41 (eBioscience) for 20 min, followed by analysis on FACSCalibur on log forward and side scatter scales.

[3] = system: SCID-repopulating cells in NSG mice; assay: Engraftment in NSG mice and limiting dilution analysis; settings: mouse, in vivo
Method: BM-derived CD34^+ cells were cultured in SCF and Tpo (100 ng/ml each) for 4 days and treated under control conditions or Bleb (20 μM) for 3 days. The cells were injected intra-tibially into sub-lethally irradiated (250 rads) 6-10-week-old NSG mice within 24 hr after irradiation. Engraftment was assessed by analysis of blood or bone marrow using anti-mouse and anti-human CD47 antibodies using flow cytometry. The mice were sacrificed after sixteen weeks post-transplantation. For secondary engraftment, 50% of the bone marrow from femurs and tibias from each mouse was transplanted into one sub-lethally irradiated NSG mouse. 16 weeks after transplantation, blood and bone marrow were harvested from the mice and analyzed by flow cytometry. All animal experiments were done in accordance with institutional guidelines approved by the ethical committee from the University of Pennsylvania. The human repopulation HSC frequency was quantified by extreme limiting dilution analysis (ELDA) software (Hu and Smyth, 2009)

IC50 ([1]; SCF and Tpo, n≥3 donors, read-out: BFU-E IC50): 18.6 µM
IC50 ([1]; SCF and Tpo, n≥3 donors, read-out: CFU-GM IC50): 10.5 µM
IC50 ([1]; absence of Epo, n=3 donors, read-out: BFU-E relative to CFU-GM IC50): 10 µM
PAC-1 binding of platelets derived from drug-exposed MKs (αIIbβ3): normal PAC-1 binding
IC50 ([2]; 2N cells, n≥4 donors, read-out: CPP and MPP number IC50): ~10.5 µM
Compound: Cc1ccc2c(c1)C(=O)C1(O)CCN(c3ccccc3)C1=N2 (racemic) [blebbistatin, (±)-blebbistatin]
concentration under which BFU-E and CFU-GEMM numbers are not changed [1]: ~15 µM
concentration of maximum BFU-E relative to CFU-GM ratio ([1]; absence of Epo): 12.5 µM
increase of BFU-E to CFU-GM ratio ([1]; at 12.5 μM): 2 fold
increase in apoptosis (CD34+-derived cells): about 2 fold
change in primitive HSC cell number [2]: < 50%
enrichment for LT-HSCs ([2]; 20 μM, 2N cells): 15.6±4.1 fold
CPP depletion ([2]; 3-day treatment): 31 fold
CPP depletion, range ([2]; 3-day treatment): 15-48 fold
HSC enrichment, average ([2]; 3-day treatment): 16 fold
HSC enrichment, range ([2]; 3-day treatment): 5-24 fold
MPP depletion ([2]; 3-day treatment): 1.8 fold
MPP depletion, range ([2]; 3-day treatment): 1.3-2.3 fold
HSC number, mean ([2]; normalized to initial cell input): 646±77
HSC-to-MPP ratio vs untreated cells ([2]; on plastic): ~4 fold
Ki ([2]; read-out: inhibition constant Ki, MPPs and CPPs): ~10.5 µM
increase in HSC frequency in terms of total cell number injected [3]: 4 fold
